{
  "source": "patent US20240408086A1",
  "about": "“USE OF LUVADAXISTAT FOR THE TREATMENT OF COGNITIVE IMPAIRMENT” (TAKEDA PHARMACEUTICAL COMPANY LIMITED, priority 2021, published 2024)",
  "key": {"[1]": {"system": "scopolamine-induced EBC deficits", "details": "preclinical studies; see Example 2 of WO 2015/132608; cited from earlier work"}, "mouse hippocampus": {"system": "mouse hippocampus", "experiment": "Hippocampal long-term potentiation (LTP) after acute and sub-chronic oral dosing", "assay_type": "in vivo, mice", "method": "In this study, hippocampal synaptic plasticity was evaluated using a well-established long-term potentiation (LTP) paradigm after acute and sub-chronic (14 days) dosing with Compound (I).\nWild-type mice aged 5-6 weeks (total of 97; n=5-8 per condition) were given acute or sub-chronic (14-day) oral doses of Compound (I) (from 0.001 mg/kg to 10 mg/kg, p.o.) or vehicle (1% Tween 80 in 0.5% methylcellulose). Hippocampal slices were harvested after 5 hours. Cerebellum and blood plasma were also obtained to measure D-serine levels achieved in the experimental animals.\nElectrophysiological recordings were obtained from a single hippocampal slice placed on the chamber and perfused with aCSF at a constant rate. Extracellular field excitatory postsynaptic potentials (fEPSPs) were recorded in the CA1 stratum radiatum using a glass micropipette filled with aCSF. fEPSPs were evoked by electrical stimulation of Schaffer collaterals/commissural pathway at 0.1 Hz with a glass stimulating electrode placed in the stratum radiatum.\nTo test the effect of Compound (I) on basal synaptic transmission, Input/Output […] curves were constructed at the beginning of the experiment. The slope of fEPSPs was measured and plotted against different intensities of stimulation (from 0 to 100 μA). Long-term potentiation (LTP) was induced by a theta burst stimulation protocol (10 bursts of 4 pulses at 100 Hz, with 200 ms between bursts) at baseline stimulation intensity. Following this conditioning stimulus, a 1-hour test period was recorded where responses were again elicited by a single stimulation every 10 seconds (0.1 Hz) at the same stimulus intensity."}, "[2]": {"system": "patients with schizophrenia", "experiment": "Phase 1b crossover study: auditory steady state response (ASSR) gamma band power", "assay_type": "in vivo, human", "from_the_text": "(§1) NCT03359785 was a randomized, double-blind, placebo-controlled cross-over Phase 1b clinical trial in schizophrenia patients at a single site to evaluate PD effects, safety, tolerability, and pharmacokinetics of multiple oral doses of Compound (I). The objective of the study was to assess pharmacodynamic (PD) biomarkers of Compound (I) on measures related to cerebellar circuitry function and NMDA pharmacology that are known to be affected in schizophrenia.\nEvoked potentials in the electroencephalogram were also tested to assess the impact of multiple oral doses of Compound (I) on NMDA-sensitive physiological responses that are affected in schizophrenia. Specifically, mismatch negativity (MMN), auditory steady state response (ASSR), and P300 were measured at baseline and following 8 days of treatment in both periods.\nASSR are evoked oscillatory responses that are entrained to the frequency and phase of temporally modulated stimuli. Individuals with schizophrenia experience subjective sensory anomalies and objective deficits on assessment of sensory function. These deficits can be produced by abnormal signaling in the sensory pathways and sensory cortex or by later-stage disturbances in the cognitive processing of such inputs. ASSR can be used to assess the integrity of sensory pathways including cortical processing. ASSR was measured at midline central electrode (Cz) of EEG.\nAll endpoints were analyzed as change from baseline compared to placebo within the same subjects. Statistical comparisons were conducted with an ANOVA model, with treatment sequence, period, and treatment as fixed effects, and subject as a random effect. As a supplementary analysis, an analysis of covariance model (ANCOVA) was applied to the primary endpoint with (period) baseline as a covariate, treatment sequence, period, treatment effect and baseline-by-treatment as fixed effects, and subject as a random effect."}, "Rat": {"system": "Rat", "experiment": "Attention set-shifting task (ASST) (executive function)", "assay_type": "in vivo", "parameters": "key: a + sign means efficacious; a − sign means not efficacious", "details": "for Attention set-shifting task (ASST) (executive function): 14-Day Once Daily (QD); for ASST (executive function): Single Dose", "from_the_text": "(§2) In Table 1, a + sign means efficacious, a − sign means not efficacious, and an empty cell indicates a dose was not tested."}, "[3]": {"system": "patients with schizophrenia", "experiment": "Phase 1b crossover study: safety and tolerability", "assay_type": "in vivo, human", "details": "50 or 500 mg for 8 consecutive days", "from_the_text": "as §1\nSafety objectives included the incidence of treatment-emergent adverse events (TEAEs), laboratory tests, vital signs, and electrocardiogram (ECG) assessments."}, "Mouse": {"system": "Mouse", "experiment": "Novel object recognition (cognition)", "assay_type": "in vivo", "parameters": "key: a + sign means efficacious; a − sign means not efficacious", "from_the_text": "as §2"}, "[4]": {"system": "adult patients with persistent negative symptoms of schizophrenia", "assay_type": "in vivo, human", "details": "for PANSS NSFS, LS mean change from baseline to Week 12: placebo −3.1", "from_the_text": "Compound (I) was orally administered in the form of a tablet once daily for up to 14 weeks. Compound (I) placebo-matching tablets were similarly orally administered once daily for up to 14 weeks. The treatment group remained undisclosed to the participant and study doctor/site personnel during the study unless there was an urgent medical need.\nThe primary endpoint evaluated was the change in negative symptoms, measured as the 12-week change from baseline in the Positive and Negative Syndrome Scale-Negative Symptom Factor Score (PANSS NSFS)."}},
  "note": "Where two headings read alike, the source gives them in different places.",
  "data": [
    {"smiles": "O=c1[nH]nc(CCc2ccc(C(F)(F)F)cc2)cc1O", "note": "[Compound (I), luvadaxistat]", "values": [
      {"measurement": "Reversal of scopolamine-induced EBC deficits", "setting": "[1]", "value": "robust effects in reversing scopolamine-induced EBC deficits"},
      {"measurement": "LTP in the mouse hippocampus", "setting": "mouse hippocampus; single oral doses vs vehicle, one-way ANOVA", "value": "did not significantly affect LTP"},
      {"measurement": "LTP in the mouse hippocampus", "setting": "mouse hippocampus; sub-chronic (14-day) oral dose 0.001 mg/kg, p<0.05 vs vehicle", "value": "increased LTP"},
      {"measurement": "LTP in the mouse hippocampus", "setting": "mouse hippocampus; sub-chronic (14-day) oral dose 0.01 mg/kg, p<0.05 vs vehicle", "value": "increased LTP"},
      {"measurement": "LTP in the mouse hippocampus", "setting": "mouse hippocampus; sub-chronic (14-day) oral dose 0.1 mg/kg, p<0.05 vs vehicle", "value": "decreased LTP"},
      {"measurement": "LTP in the mouse hippocampus", "setting": "mouse hippocampus; sub-chronic (14-day) oral dose 10 mg/kg, p<0.05 vs vehicle", "value": "decreased LTP"},
      {"measurement": "ASSR gamma power, effect size vs placebo", "setting": "[2]; 50 mg for 8 days", "value": 0.575},
      {"measurement": "ASSR gamma power, change from baseline", "setting": "[2]; 50 mg for 8 days, placebo −16.282, p=0.056", "value": 2.135},
      {"measurement": "ASSR gamma power, effect size vs placebo", "setting": "[2]; 500 mg for 8 days", "value": 0.003},
      {"measurement": "ASSR gamma power, change from baseline", "setting": "[2]; 500 mg for 8 days, placebo 9.203, p=0.495", "value": 9.411},
      {"measurement": "Attention set-shifting task (ASST) (executive function)", "setting": "Rat; 0.1 mg/kg", "value": "+"},
      {"measurement": "Attention set-shifting task (ASST) (executive function)", "setting": "Rat; 1 mg/kg", "value": "+"},
      {"measurement": "Attention set-shifting task (ASST) (executive function)", "setting": "Rat; 10 mg/kg", "value": "+"},
      {"measurement": "ASST (executive function)", "setting": "Rat; 3 mg/kg", "value": "+"},
      {"measurement": "ASST (executive function)", "setting": "Rat; 10 mg/kg", "value": "+"},
      {"measurement": "ASST (executive function)", "setting": "Rat; 30 mg/kg", "value": "+"},
      {"measurement": "Deaths, serious adverse events, TEAEs leading to discontinuation of study drug", "setting": "[3]", "value": "no deaths, serious adverse events (AEs), or TEAEs leading to discontinuation of study drug"},
      {"measurement": "Tolerability in the Phase 1b study", "setting": "[3]", "value": "generally well tolerated"},
      {"measurement": "Novel object recognition (cognition)", "setting": "Mouse; 14-Day Once Daily (QD), 0.001 mg/kg", "value": "−"},
      {"measurement": "Novel object recognition (cognition)", "setting": "Mouse; 14-Day Once Daily (QD), 0.003 mg/kg", "value": "+"},
      {"measurement": "Novel object recognition (cognition)", "setting": "Mouse; 14-Day Once Daily (QD), 0.01 mg/kg", "value": "+"},
      {"measurement": "Novel object recognition (cognition)", "setting": "Mouse; 14-Day Once Daily (QD), 0.03 mg/kg", "value": "+"},
      {"measurement": "Novel object recognition (cognition)", "setting": "Mouse; 14-Day Once Daily (QD), 0.1 mg/kg", "value": "+"},
      {"measurement": "Novel object recognition (cognition)", "setting": "Mouse; 14-Day Once Daily (QD), 0.3 mg/kg", "value": "−"},
      {"measurement": "Novel object recognition (cognition)", "setting": "Mouse; 14-Day Once Daily (QD), 1 mg/kg", "value": "−"},
      {"measurement": "Novel object recognition (cognition)", "setting": "Mouse; 14-Day Once Daily (QD), 3 mg/kg", "value": "−"},
      {"measurement": "Novel object recognition (cognition)", "setting": "Mouse; Single Dose, 0.1 mg/kg", "value": "−"},
      {"measurement": "Novel object recognition (cognition)", "setting": "Mouse; Single Dose, 0.3 mg/kg", "value": "+"},
      {"measurement": "Novel object recognition (cognition)", "setting": "Mouse; Single Dose, 1 mg/kg", "value": "+"},
      {"measurement": "Novel object recognition (cognition)", "setting": "Mouse; Single Dose, 3 mg/kg", "value": "+"},
      {"measurement": "Novel object recognition (cognition)", "setting": "Mouse; Single Dose, 10 mg/kg", "value": "+"},
      {"measurement": "PANSS NSFS, LS mean change from baseline to Week 12", "setting": "[4]; 50 mg once daily, p=0.426 vs placebo", "value": "−3.3"},
      {"measurement": "Improvement in PANSS NSFS versus placebo", "setting": "[4]; 50 mg, 125 mg, or 500 mg at Week 12", "value": "no significant improvements"},
      {"measurement": "PANSS NSFS, LS mean change from baseline to Week 12", "setting": "[4]; 125 mg once daily, p=0.362 vs placebo", "value": "−3.4"},
      {"measurement": "PANSS NSFS, LS mean change from baseline to Week 12", "setting": "[4]; 500 mg once daily, p=0.808 vs placebo", "value": "−2.5"}
    ]}
  ]
}
